# Test results from the supplement of paper PMC7661543.
# ± gives the standard deviation of the averaged measurements.
# Tested on: SKBR3
# Experiment: relative cell number vs DMSO control (72 h) (% of DMSO); higher = less growth inhibition (more cells)
# Settings: sgRNA knockout: sgNT, 1000 nM
# Procedure: (§1)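 QMAP-Seq: a pool of 5 breast cancer cell lines (ZR-75-1, SKBR3, HCC-38, MDA-MB-231, BT-20), each carrying 12 doxycycline-inducible Cas9 sgRNA perturbations (11 knockouts plus non-targeting sgNT), was treated with compounds for 72 h at four 10-fold doses (10 nM-10 uM or 1 nM-1 uM range). Barcodes were amplified and sequenced, and cell number was interpolated from 293T spike-in standard curves. The result is expressed as % of the median of DMSO wells. Two biological replicates.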
row,Compound,relative cell number
1,C=CC(=O)Nc1cc2c(Nc3ccc(F)c(Cl)c3)ncnc2cc1OCCCN1CCOCC1 [Canertinib],39.1 ± 14

# Same assay, conditions: sgRNA knockout: sgNT, 10000 nM
row,Compound,relative cell number
1,FC(F)c1nc2ccccc2n1-c1nc(N2CCOCC2)nc(N2CCOCC2)n1 [ZSTK474],39.1 ± 6.5
2,Cc1nc(Nc2ncc(C(=O)Nc3c(C)cccc3Cl)s2)cc(N2CCN(CCO)CC2)n1 [Dasatinib],41.6 ± 1.3
3,CN/C(=N\CCSCc1nc[nH]c1C)NC#N [Cimetidine],110 ± 13
4,COc1cc(CCc2cc(NC(=O)c3ccc(N4CC(C)NC(C)C4)cc3)n[nH]2)cc(OC)c1 (configuration not stated) [AZD4547],51 ± 14
5,CC(C)(C)c1ccc(S(=O)(=O)NCc2ccc(C(=O)Nc3cccnc3)cc2)cc1 [STF31],44.1 ± 5.7
6,CCC[C@H](NC(=O)/C(C#N)=C/c1cccc(Br)n1)c1ccccc1 [WP1130],8.93 ± 1.9
7,O=[N+]([O-])c1ccc(O)c2ncccc12 [Nitroxoline],40 ± 6.6
8,O=C1c2c(O)ccc(O)c2C(=O)c2c(NCCNCCO)ccc(NCCNCCO)c21 [Mitoxantrone],4.94 ± 3.2
9,N[C@@H](CC(=O)N1CCn2c(nnc2C(F)(F)F)C1)Cc1cc(F)c(F)cc1F [Sitagliptin],89.8 ± 3.9
10,CC(C)[C@H](O)C(=O)N[C@@H](C)C(=O)N[C@@H]1C(=O)N(C)CCc2ccccc21 [Semagacestat],107 ± 42
11,C=C1C(=O)O[C@H]2[C@H]1CC/C(C)=C/CC[C@@]1(C)O[C@@H]21 [Parthenolide],98.9 ± 4.2
12,COc1cc(/C=C/C(=O)CC(=O)/C=C/c2ccc(O)c(OC)c2)ccc1O [Curcumin],66.7 ± 0.98
13,Nc1nc(OCc2cc(Br)cs2)c2[nH]cnc2n1 [Lomeguatrib],90.4 ± 27
14,C=C(c1ccc(C(=O)O)cc1)c1cc2c(cc1C)C(C)(C)CCC2(C)C [Bexarotene],90 ± 11
15,Clc1ccc(C2(c3ccc(-c4cn[nH]c4)cc3)CCNCC2)cc1 [AT7867],10.8 ± 2.8
16,CS(=O)(=O)c1cccc(CNc2nc(Nc3ccc4c(c3)CCC(=O)N4)ncc2C(F)(F)F)c1,54.4 ± 9.9
17,N#Cc1ccc(COC[C@H]2O[C@@H](n3c(NCc4ccc(Cl)c(Cl)c4)nc4c(N)ncnc43)[C@H](O)[C@@H]2O)cc1,60.1 ± 4.3
18,CN(Cc1cnc2nc(N)nc(N)c2n1)c1ccc(C(=O)N[C@@H](CCC(=O)O)C(=O)O)cc1 [Methotrexate],25.5 ± 6.4
19,CC(C)CC(=O)Nc1n[nH]c2c1CN(C(=O)C1CCN(C)CC1)C2(C)C,11.8 ± 1.6
20,CCCc1nn(C)c2c(=O)[nH]c(-c3cc(S(=O)(=O)N4CCN(C)CC4)ccc3OCC)nc12 [Sildenafil],68.1 ± 16
21,O=C1CCC(N2C(=O)c3ccccc3C2=O)C(=O)N1 (configuration not stated) [Thalidomide],106 ± 2.4
22,CC(C)(C(=O)NCC(F)(F)C(F)(F)F)C(=O)N[C@@H]1C(=O)Nc2ccccc2-c2ccccc21,109 ± 22
23,CC[C@@]1(O)C(=O)OCc2c1cc1n(c2=O)Cc2cc3c(CN(C)C)c(O)ccc3nc2-1 [Topotecan],6.08 ± 3.9
24,C=CC(=O)Nc1cc2c(Nc3ccc(F)c(Cl)c3)ncnc2cc1OCCCN1CCOCC1 [Canertinib],16.3 ± 0.86

# Tested on: ZR-75-1
# Experiment: as above
# Settings: sgRNA knockout: sgNT, 1 nM
# Procedure: as §1
row,Compound,relative cell number
1,CC(C)C[C@H](NC(=O)[C@H](Cc1ccccc1)NC(=O)c1cnccn1)B(O)O [Bortezomib],72 ± 20

# Same assay, conditions: sgRNA knockout: sgNT, 10 nM
row,Compound,relative cell number
1,FC(F)c1nc2ccccc2n1-c1nc(N2CCOCC2)nc(N2CCOCC2)n1 [ZSTK474],85.1 ± 10
2,Cc1nc(Nc2ncc(C(=O)Nc3c(C)cccc3Cl)s2)cc(N2CCN(CCO)CC2)n1 [Dasatinib],107 ± 27
3,CN/C(=N\CCSCc1nc[nH]c1C)NC#N [Cimetidine],103 ± 4.7
4,CC(C)C[C@H](NC(=O)[C@H](Cc1ccccc1)NC(=O)c1cnccn1)B(O)O [Bortezomib],80 ± 17
5,COc1cc(CCc2cc(NC(=O)c3ccc(N4CC(C)NC(C)C4)cc3)n[nH]2)cc(OC)c1 (configuration not stated) [AZD4547],82.1 ± 31
6,CC(C)(C)c1ccc(S(=O)(=O)NCc2ccc(C(=O)Nc3cccnc3)cc2)cc1 [STF31],112 ± 27
7,CCC[C@H](NC(=O)/C(C#N)=C/c1cccc(Br)n1)c1ccccc1 [WP1130],96.9 ± 44
8,O=[N+]([O-])c1ccc(O)c2ncccc12 [Nitroxoline],86.7 ± 6.9
9,O=C1c2c(O)ccc(O)c2C(=O)c2c(NCCNCCO)ccc(NCCNCCO)c21 [Mitoxantrone],37.2 ± 4
10,N[C@@H](CC(=O)N1CCn2c(nnc2C(F)(F)F)C1)Cc1cc(F)c(F)cc1F [Sitagliptin],118 ± 6.4
11,CC(C)[C@H](O)C(=O)N[C@@H](C)C(=O)N[C@@H]1C(=O)N(C)CCc2ccccc21 [Semagacestat],112 ± 22
12,C=C1C(=O)O[C@H]2[C@H]1CC/C(C)=C/CC[C@@]1(C)O[C@@H]21 [Parthenolide],94.9 ± 35
13,COc1cc(/C=C/C(=O)CC(=O)/C=C/c2ccc(O)c(OC)c2)ccc1O [Curcumin],73.8 ± 1.7
14,Nc1nc(OCc2cc(Br)cs2)c2[nH]cnc2n1 [Lomeguatrib],103 ± 42
15,C=C(c1ccc(C(=O)O)cc1)c1cc2c(cc1C)C(C)(C)CCC2(C)C [Bexarotene],97.6 ± 34
16,Clc1ccc(C2(c3ccc(-c4cn[nH]c4)cc3)CCNCC2)cc1 [AT7867],61.2 ± 35
17,CS(=O)(=O)c1cccc(CNc2nc(Nc3ccc4c(c3)CCC(=O)N4)ncc2C(F)(F)F)c1,98.8 ± 47
18,N#Cc1ccc(COC[C@H]2O[C@@H](n3c(NCc4ccc(Cl)c(Cl)c4)nc4c(N)ncnc43)[C@H](O)[C@@H]2O)cc1,105 ± 48
19,CN(Cc1cnc2nc(N)nc(N)c2n1)c1ccc(C(=O)N[C@@H](CCC(=O)O)C(=O)O)cc1 [Methotrexate],89.6 ± 11
20,CC(C)CC(=O)Nc1n[nH]c2c1CN(C(=O)C1CCN(C)CC1)C2(C)C,70.6 ± 6.3
21,CCCc1nn(C)c2c(=O)[nH]c(-c3cc(S(=O)(=O)N4CCN(C)CC4)ccc3OCC)nc12 [Sildenafil],105 ± 9.5
22,O=C1CCC(N2C(=O)c3ccccc3C2=O)C(=O)N1 (configuration not stated) [Thalidomide],79.7 ± 19
23,CC(C)(C(=O)NCC(F)(F)C(F)(F)F)C(=O)N[C@@H]1C(=O)Nc2ccccc2-c2ccccc21,76.9 ± 11
24,CC[C@@]1(O)C(=O)OCc2c1cc1n(c2=O)Cc2cc3c(CN(C)C)c(O)ccc3nc2-1 [Topotecan],65.9 ± 3.4
25,C=CC(=O)Nc1cc2c(Nc3ccc(F)c(Cl)c3)ncnc2cc1OCCCN1CCOCC1 [Canertinib],117 ± 23

# Same assay, conditions: sgRNA knockout: sgNT, 100 nM
row,Compound,relative cell number
1,FC(F)c1nc2ccccc2n1-c1nc(N2CCOCC2)nc(N2CCOCC2)n1 [ZSTK474],96.2 ± 4.4
2,Cc1nc(Nc2ncc(C(=O)Nc3c(C)cccc3Cl)s2)cc(N2CCN(CCO)CC2)n1 [Dasatinib],75.8 ± 34
3,CN/C(=N\CCSCc1nc[nH]c1C)NC#N [Cimetidine],121 ± 47
4,CC(C)C[C@H](NC(=O)[C@H](Cc1ccccc1)NC(=O)c1cnccn1)B(O)O [Bortezomib],17.2 ± 3.5
5,COc1cc(CCc2cc(NC(=O)c3ccc(N4CC(C)NC(C)C4)cc3)n[nH]2)cc(OC)c1 (configuration not stated) [AZD4547],68.3 ± 13
6,CC(C)(C)c1ccc(S(=O)(=O)NCc2ccc(C(=O)Nc3cccnc3)cc2)cc1 [STF31],92.7 ± 8
7,CCC[C@H](NC(=O)/C(C#N)=C/c1cccc(Br)n1)c1ccccc1 [WP1130],59.7 ± 4.9
8,O=[N+]([O-])c1ccc(O)c2ncccc12 [Nitroxoline],94.1 ± 17
9,O=C1c2c(O)ccc(O)c2C(=O)c2c(NCCNCCO)ccc(NCCNCCO)c21 [Mitoxantrone],22.3 ± 12
10,N[C@@H](CC(=O)N1CCn2c(nnc2C(F)(F)F)C1)Cc1cc(F)c(F)cc1F [Sitagliptin],84.6 ± 64
11,CC(C)[C@H](O)C(=O)N[C@@H](C)C(=O)N[C@@H]1C(=O)N(C)CCc2ccccc21 [Semagacestat],92 ± 28
